5 compounds from patent US8889671B2, “Compounds and methods for treating bacterial infections” (AstraZeneca AB, priority 2013, dated 2014) can be followed below.

One assay has as its system Staphylococcus aureus. Briefly: Susceptibility testing (MIC) Assay 1, broth microdilution. The assay is classed as cell-based. To be noted: Staphylococcus aureus. For orientation: Dilution methods test growth across graded concentrations, often in twofold steps.
A further assay concerns Streptococcus pneumoniae. The assay is described as above. The assay is classed as cell-based.
The subject of a further assay is Streptococcus pyogenes. The description is as above. Format: cell-based. To be noted: Streptococcus pyogenes, Streptococcus pyrgenes, in vivo strain; read-out: Spy MIC.
The test system of the next assay is Escherichia coli. Briefly: Susceptibility testing (MIC) Assay 2, broth microdilution. The assay is classed as cell-based. To be noted: K12, read-out: Eco MIC.
For another assay, the system named is Haemophilus influenzae. The assay is described as above. Format: cell-based. To be noted: ATCC51907, Haemophilus influenzae, ATCC 51907, in vivo strain, read-out: Hin MIC.
The next assay has as its system Klebsiella pneumoniae. The description is as above. Format: cell-based. To be noted: clinical isolate, mucoid, read-out: Kpn MIC.
For another assay, the system named is Pseudomonas aeruginosa. The assay is described as above. The assay is classed as cell-based. To be noted: PAO1, read-out: Pae MIC.
In assay [1] the target is Escherichia coli DNA gyrase A/B tetramer (Escherichia coli (strain K12), UniProt P0AES4+P0AES6). Kind of assay: DNA gyrase supercoiling activity fluorescence polarisation assay. To be noted: Eco Gyr FP Mean IC50, E. coli DNA gyrase supercoiling, 0.3 mM ATP. Format: biochemical. A digest of the protocol:
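IC50 derived by nonlinear regression from BODIPY-FL fluorescence anisotropy, read 60 min after quenching with labelled triplex-forming probe (pH 3.5). Reaction: 5 nM gyrase tetramer, 130 micrograms/mL relaxed plasmid, 0.3 mM ATP, 4 mM MgCl2, pH 7.5, typically 30 min at ambient temperature, 5-10 compound concentrations.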
Background: In fluorescence polarisation assays a small probe gives low polarisation when free and higher when bound to something large.

[2] abbreviates: Staphylococcus aureus in vivo strain, MSQS, read-out: Sau(d) MIC.
Setting [3] is: in vivo strain, MRQR, read-out: Sau(e) MIC.
Where [4] appears, read: in vivo strain (footnote b), read-out: Spn(b) MIC.
The mark [5] stands for this setting: in vivo strain (footnote c), read-out: Spn(c) MIC.

≈ marks a conversion by molar mass, not a printed value. Where two headings read alike, the source gives them in different places. Where only a bound is given, the exact number is not on record here.

What is called IC50 is the concentration at which inhibition is half-maximal.

Regarding `COC[C@@H]1CN(c2noc3c(F)c4c(cc23)CC2(C(=O)NC(=O)NC2=O)[C@H]2[C@H](C)O[C@H](C)CN42)C(=O)O1` [Example 35], the MIC in the assay with Staphylococcus aureus (setting [2]) is less than 0.2 µM; in the assay on Staphylococcus aureus (setting [3]), 1.6 µM (≈ 0.828 µg/mL); in the assay with Staphylococcus aureus (serum, read-out: Sau(f) MIC), 0.39 µM (≈ 0.202 µg/mL); in the assay with Streptococcus pneumoniae (setting [4]), 0.39 µM (≈ 0.202 µg/mL); in the assay on Streptococcus pneumoniae (setting [5]), 0.39 µM (≈ 0.202 µg/mL); with Streptococcus pyogenes, 0.2 µM (≈ 0.103 µg/mL). Moreover, the MIC with Escherichia coli was 50 µM (≈ 25.9 µg/mL); with Haemophilus influenzae, 0.78 µM (≈ 0.404 µg/mL); in the assay on Klebsiella pneumoniae it was greater than 200 µM; with Pseudomonas aeruginosa, greater than 200 µM. The compound also registered an IC50 in assay [1] of 310 nM.
`COC[C@H]1CN(c2noc3c(F)c4c(cc23)CC2(C(=O)NC(=O)NC2=O)[C@H]2[C@H](C)O[C@H](C)CN42)C(=O)O1` [Example 36]: the MIC was 0.78 µM (≈ 0.404 µg/mL) in the assay with Staphylococcus aureus (setting [2]); 3.1 µM (≈ 1.6 µg/mL) in the assay with Staphylococcus aureus (setting [3]); 1.6 µM (≈ 0.828 µg/mL) in the assay with Staphylococcus aureus (serum, read-out: Sau(f) MIC); 1.6 µM (≈ 0.828 µg/mL) in the assay with Streptococcus pneumoniae (setting [4]); 1.6 µM (≈ 0.828 µg/mL) with Streptococcus pneumoniae (setting [5]); 0.78 µM (≈ 0.404 µg/mL) with Streptococcus pyogenes. For the same compound, the MIC with Escherichia coli is 100 µM (≈ 51.7 µg/mL); with Haemophilus influenzae it was 1.6 µM (≈ 0.828 µg/mL); in the assay on Klebsiella pneumoniae, greater than 200 µM; in the assay on Pseudomonas aeruginosa, greater than 200 µM. Moreover, the IC50 in assay [1] turned out to be 590 nM.
Consider `C[C@@H]1CN2c3c(cc4c(N5C[C@H](CO)OC5=O)noc4c3F)CC3(C(=O)NC(=O)NC3=O)[C@H]2[C@H](C)O1` [Example 37, (2R,4S,4aS)-11-Fluoro-8-[(5R)-5-(hydroxymethyl)-2-oxo-1,3-oxazolidin-3-yl]-2,4-dimethyl-1,2,4,4a-tetrahydro-2′H,6H-spiro[1,4-oxazino[4,3-a][1,2]oxazolo[4,5-g]quinoline-5,5′-pyrimidine]-2′,4′,6′(1′H,3′H)-trione], for which the MIC was 3.1 µM (≈ 1.56 µg/mL) in the assay with Staphylococcus aureus (setting [2]); 25 µM (≈ 12.6 µg/mL) in the assay with Staphylococcus aureus (setting [3]); 6.2 µM (≈ 3.12 µg/mL) in the assay with Staphylococcus aureus (serum, read-out: Sau(f) MIC); 0.39 µM (≈ 0.196 µg/mL) in the assay with Streptococcus pneumoniae (setting [4]); 0.78 µM (≈ 0.393 µg/mL) with Streptococcus pneumoniae (setting [5]); 0.39 µM (≈ 0.196 µg/mL) in the assay on Streptococcus pyogenes. Moreover, the MIC was 200 µM (≈ 101 µg/mL) in the assay with Escherichia coli, 0.39 µM (≈ 0.196 µg/mL) in the assay with Haemophilus influenzae, greater than 200 µM in the assay with Klebsiella pneumoniae and greater than 200 µM in the assay on Pseudomonas aeruginosa. Moreover, in assay [1], half-maximal inhibition (IC50) required 120 nM.
Consider `C[C@@H]1CN2c3c(cc4c(N5C[C@H](CF)OC5=O)noc4c3F)CC3(C(=O)NC(=O)NC3=O)[C@H]2[C@H](C)O1` [Example 38, (2R,4S,4aS)-11-Fluoro-8-[(5R)-5-(fluoromethyl)-2-oxo-1,3-oxazolidin-3-yl]-2,4-dimethyl-1,2,4,4a-tetrahydro-2′H,6H-spiro[1,4-oxazino[4,3-a][1,2]oxazolo[4,5-g]quinoline-5,5′-pyrimidine]-2′,4′,6′(1′H,3′H)-trione], for which the MIC in the assay on Staphylococcus aureus (setting [2]) is less than 0.2 µM; in the assay on Staphylococcus aureus (setting [3]), 1.65 µM (≈ 0.834 µg/mL); in the assay with Staphylococcus aureus (serum, read-out: Sau(f) MIC), 0.78 µM (≈ 0.394 µg/mL); in the assay with Streptococcus pneumoniae (setting [4]), 0.39 µM (≈ 0.197 µg/mL); with Streptococcus pneumoniae (setting [5]), 0.39 µM (≈ 0.197 µg/mL); in the assay on Streptococcus pyogenes, less than 0.2 µM. The MIC with Escherichia coli was 25 µM (≈ 12.6 µg/mL); in the assay with Haemophilus influenzae, 0.39 µM (≈ 0.197 µg/mL); with Klebsiella pneumoniae, 200 µM (≈ 101 µg/mL); in the assay on Pseudomonas aeruginosa it was greater than 200 µM. The compound further gave an IC50 in assay [1] of 67 nM.
Take `C=C[C@H]1COC(=O)N1c1noc2c(F)c3c(cc12)CC1(C(=O)NC(=O)NC1=O)[C@H]1[C@H](C)O[C@H](C)CN31` [Example 39, (2R,4S,4aS)-11-Fluoro-2,4-dimethyl-8-((S)-2-oxo-4-vinyloxazolidin-3-yl)-2,4,4a,6-tetrahydro-1H,1′H-spiro[isoxazolo[4,5-g][1,4]oxazino[4,3-a]quinoline-5,5′-pyrimidine]-2′,4′,6′(3′H)-trione]: the MIC in the assay on Staphylococcus aureus (setting [2]) was 0.39 µM (≈ 0.195 µg/mL); with Staphylococcus aureus (setting [3]), 1.6 µM (≈ 0.799 µg/mL); with Staphylococcus aureus (serum, read-out: Sau(f) MIC) it was 1.6 µM (≈ 0.799 µg/mL); in the assay on Streptococcus pneumoniae (setting [4]), 0.78 µM (≈ 0.39 µg/mL); in the assay with Streptococcus pneumoniae (setting [5]), 0.78 µM (≈ 0.39 µg/mL); with Streptococcus pyogenes, 0.39 µM (≈ 0.195 µg/mL). The MIC in the assay on Escherichia coli was 25 µM (≈ 12.5 µg/mL); in the assay with Haemophilus influenzae it was 0.39 µM (≈ 0.195 µg/mL); in the assay with Klebsiella pneumoniae, 200 µM (≈ 99.9 µg/mL); with Pseudomonas aeruginosa, greater than 200 µM. In assay [1], this compound gave an IC50 of 97 nM.
